In patent publication US20240101563A1, “NOVEL COMPOUNDS” (AC Immune SA, priority 2022, published 2024):
Counter-ions that a name gives are not always drawn. Like-named read-outs stand apart in the source and are kept apart here.

Tested on: NLRP3 inflammasome pathway
Assay: NLRP3 inflammasome pathway activation assay, MSU stimulation, IL-1β HTRF
Assay type: cell-based
Details: read-out: IC50 Human monocyte-like cells MSU
Experimental: The following assays were used to determine the inhibitory activity of test compounds on the NLRP3 inflammasome pathway using common stimuli Nigericin (Invivogen) or monosodium urate crystals (MSU) (Invivogen).
Human monocyte-like cells were cultured in RPMI-1640 Glutamax medium supplemented with 10% heat inactivated FBS (Fetal Bovine Serum) and 50 U/mL penicillin-streptomycin (Life Technologies).
Human monocyte-like cells were seeded at 25000 per well in a 384-well plate and were differentiated overnight into macrophages with 10 ng/mL PMA (Phorbol Myristate Acetate). The following day, medium containing 10 ng/mL LPS (Lipopolysaccharide) was added. After 3 hours of LPS priming, concentrations of test compound in the range from […] were added 30 min prior to NLRP3 inflammasome pathway stimulation with Nigericin 3.75 μM or MSU 200 μg/mL for 3 h.
For IL-1p quantification, supernatants were analyzed using HTRF kit according to the manufacturer's instructions (Cisbio 62HIL1BPEH). Briefly, in a 384-well ProxiPlate™ microplate, 8 μl of sample was mixed, with 5 μl of Anti-IL1β Cryptate antibody (40×) and Anti-IL1β XL antibody (40×). Then, incubated overnight at RT. Reading was done using an EnVision Reader (PerkinElmer).
IC50 (concentration corresponding to 50% inhibition) were determined using GraphPad Prism 9.

[1] = Homo sapiens, 3 h, Table 7, PMA-differentiated, LPS-primed cells, MSU 200 μg/mL for 3 h, IL-1β release
[2] = Table 7, PMA-differentiated, LPS-primed cells, MSU 200 μg/mL for 3 h, IL-1β release

| IC50 [1] | SMILES | further results |
| --- | --- | --- |
| 100 to 1000 nM | Cc1cc(C(F)(F)F)cc(O)c1-c1nc2nc(N3CC(N(C)C)C3)cnc2n1C [Example 71, 2-(5-(3-(dimethylamino)azetidin-1-yl)-1-methyl-1H-imidazo[4,5-b]pyrazin-2-yl)-3-methyl-5-(trifluoromethyl)phenol] | – |
| < 100 nM | COc1nc2nc(-c3c(C)cc(C(F)(F)F)cc3O)n(C)c2cc1CO [Example 52, 2-(6-(hydroxymethyl)-5-methoxy-1-methyl-1H-imidazo[4,5-b]pyridin-2-yl)-3-methyl-5-(trifluoromethyl)phenol] | – |
| 100 to 1000 nM | Cn1c(-c2ccc(C(F)(F)F)cc2O)nc2nc(O[C@H]3CC[C@H](O)C3)ccc21 (single isomer, unassigned) [Example 37A, trans-2-(5-((3-hydroxycyclopentyl)oxy)-1-methyl-1H-imidazo[4,5-b]pyridin-2-yl)-5-(trifluoromethyl)phenol] | – |
| 100 to 1000 nM | Cc1cc(C(F)(F)F)cc(O)c1-c1nc2nc(N[C@@H]3CCC[C@@H](O)C3)ccc2n1C (single isomer, unassigned) [Example 21, 2-(5-((3-hydroxycyclohexyl)amino)-1-methyl-1H-imidazo[4,5-b]pyridin-2-yl)-3-methyl-5-(trifluoromethyl)phenol] | – |
| 100 to 1000 nM | Cn1c(-c2ccc(Cl)cc2O)nc2nc(C(F)(F)F)ccc21 [Example 49, 5-chloro-2-(1-methyl-5-(trifluoromethyl)-1H-imidazo[4,5-b]pyridin-2-yl)phenol] | – |
| 100 to 1000 nM | Cn1c(-c2ccc(C(F)(F)F)cc2O)nc2nc(NCC3(O)COC3)ccc21 [Example 54, 3-(((2-(2-hydroxy-4-(trifluoromethyl)phenyl)-1-methyl-1H-imidazo[4,5-b]pyridin-5-yl)amino)methyl)oxetan-3-ol] | – |
| – | Cc1cc(Cl)cc(O)c1-c1nc2nc(N3CCC(C)(O)C3)cnc2n1C (single isomer, unassigned) [Example 86B] | IC50 [2]: < 100 nM |
| 100 to 1000 nM | Cc1cc(Cl)cc(O)c1-c1nc2nc(N3CCOCC3)c(F)cc2n1C [Example 64, 5-chloro-2-(6-fluoro-1-methyl-5-morpholino-1H-imidazo[4,5-b]pyridin-2-yl)-3-methylphenol] | – |
| – | Oc1cc(C(F)(F)F)ccc1-n1cc2ccc(OC(F)F)nc2n1 [Example 44, 2-[6-(difluoromethoxy)pyrazolo[3,4-b]pyridin-2-yl]-5-(trifluoromethyl)phenol] | IC50 (Homo sapiens, 3 h): 100 to 1000 nM |
| 100 to 1000 nM | CC(C)n1c(-c2ccc(C(F)(F)F)cc2O)nc2nc(NCCO)ccc21 [Example 17, 2-(5-((2-hydroxyethyl)amino)-1-isopropyl-1H-imidazo[4,5-b]pyridin-2-yl)-5-(trifluoromethyl)phenol] | – |
| < 100 nM | Cc1cc(Cl)cc(O)c1-c1nc2nc(N(C)[C@@H]3CCN(C)C3)cnc2n1C [Example 81, 5-chloro-3-methyl-2-[1-methyl-5-[methyl-[(3R)-1-methylpyrrolidin-3-yl]amino]imidazo-[4,5-b]pyrazin-2-yl]phenol] | – |
| 100 to 1000 nM | Cc1cc(C(F)(F)F)cc(O)c1-c1nc2nc(N3CC(C)(O)C3)cnc2n1C [Example 84, 1-(2-(2-hydroxy-6-methyl-4-(trifluoromethyl)phenyl)-1-methyl-1H-imidazo[4,5-b]pyrazin-5-yl)-3-methylazetidin-3-ol] | – |
| – | Cn1c(NCCO)nc2nc(-c3ccc(C(F)(F)F)cc3O)ccc21 [Example 82, 2-(2-((2-hydroxyethyl)amino)-1-methyl-1H-imidazo[4,5-b]pyridin-5-yl)-5-(trifluoro-methyl)phenol] | IC50 (Homo sapiens, 3 h, Table 8 (formula II′/II vs formula III), MSU 200 μg/mL for 3 h, IL-1β release): > 1500 nM |
| 100 to 1000 nM | CNc1ccc2c(n1)nc(-c1c(C)cc(C(F)(F)F)cc1O)n2C(C)C [Example 15, 2-(1-isopropyl-5-(methylamino)-1H-imidazo[4,5-b]pyridin-2-yl)-3-methyl-5-(trifluoromethyl)phenol] | – |
| – | Cc1cc(Cl)cc(O)c1-c1nc2nc(N3CCC(O)C3)cnc2n1C (single isomer, unassigned) [Example 85B] | IC50 [2]: < 100 nM |
| 100 to 1000 nM | Cc1cc(Cl)cc(O)c1-c1nc2nc(N3CCOCC3)cnc2[nH]1 [Example 73, 5-chloro-3-methyl-2-(5-morpholino-1H-imidazo[4,5-b]pyrazin-2-yl)phenol] | – |
| 100 to 1000 nM | Cc1cc(C(F)(F)F)cc(O)c1-c1nc2nc(OC3CCN(C)C3)ncc2n1C (racemic) [Example 55, 3-methyl-2-(7-methyl-2-((1-methylpyrrolidin-3-yl)oxy)-7H-purin-8-yl)-5-(trifluoromethyl)phenol] | – |
| < 100 nM | Cc1cc(C(F)(F)F)cc(O)c1-c1nc2nc(N(C)C)c(CO)cc2n1C [Example 67, 2-[5-(dimethylamino)-6-(hydroxymethyl)-1-methyl-imidazo[4,5-b]pyridin-2-yl]-3-methyl-5-(trifluoromethyl)phenol] | – |
| < 100 nM | Cc1cc(C(F)(F)F)cc(O)c1-c1nc2nc(N(C)[C@@H]3CCN(C)C3)cnc2n1C [Example 60, (R)-3-methyl-2-(1-methyl-5-(methyl(1-methylpyrrolidin-3-Yl)amino)-1H-imidazo[4,5-b]pyrazin-2-yl)-5-(trifluoromethyl)phenol formate Salt] | – |
| 100 to 1000 nM | COc1ccc2c(n1)nc(-c1c(C)cc(Cl)cc1O)n2C(C)C [Example 31, 5-chloro-2-(1-isopropyl-5-methoxy-1H-imidazo[4,5-b]pyridin-2-yl)-3-methylphenol] | – |
| < 100 nM | Cc1cc(Cl)cc(O)c1-c1nc2nc(N[C@@H]3CCN(C)C3)c(F)cc2n1C [Example 47, (R)-5-chloro-2-(6-fluoro-1-methyl-5-((1-methylpyrrolidin-3-yl)amino)-1H-imidazo[4,5-b]pyridin-2-yl)-3-methylphenol formate Salt] | – |
| < 100 nM | Cc1cc(C(F)(F)F)cc(O)c1-c1nc2nc(N3CCC(O)CC3)cnc2n1C [Example 63, 1-(2-(2-hydroxy-6-methyl-4-(trifluoromethyl)phenyl)-1-methyl-1H-imidazo[4,5-b]pyrazin-5-yl)piperidin-4-ol] | – |
| 100 to 1000 nM | Cc1cc(Cl)cc(O)c1-c1nc2nc(C(F)(F)F)ccc2n1C [Examples 50] | – |
| < 100 nM | Cc1cc(C(F)(F)F)cc(O)c1-c1nc2nc(N[C@@H]3CCN(C)C3)ccc2n1C(C)C [Example 10B, (R)-2-(1-isopropyl-5-((1-methylpyrrolidin-3-yl)amino)-1H-imidazo[4,5-b]pyridin-2-yl)-3-methyl-5-(trifluoromethyl)phenol] | – |

| SMILES | IC50 [1] | further results |
| --- | --- | --- |
| CN1CC[C@@H](Oc2ccc3c(n2)nc(-c2ccc(C(F)(F)F)cc2O)n3C)C1 [Example 27, (R)-2-(1-methyl-5-((1-methylpyrrolidin-3-yl)oxy)-1H-imidazo[4,5-b]pyridin-2-yl)-5-(trifluoromethyl)phenol] | < 100 nM | – |
| Cn1c(-c2ccc(C(F)(F)F)cc2O)nc2nc(NC3COC3)ccc21 [Example 7, 2-(1-methyl-5-(oxetan-3-ylamino)-1H-imidazo[4,5-b]pyridin-2-yl)-5-(trifluoromethyl)phenol] | 100 to 1000 nM | – |
| CNc1ccc2c(n1)nc(-c1ccc(C(F)(F)F)cc1O)n2C [Example 4, 2-(1-methyl-5-(methylamino)-1H-imidazo[4,5-b]pyridin-2-yl)-5-(trifluoromethyl)phenol] | 100 to 1000 nM | – |
| Cc1cc(C(F)(F)F)cc(O)c1-c1nc2nc(NC3CCN(C)C3)ccc2n1C (single isomer, unassigned) [Example 18A, 3-methyl-2-(1-methyl-5-((1-methylpyrrolidin-3-yl)amino)-1H-imidazo[4,5-b]pyridin-2-yl)-5-(trifluoromethyl)phenol] | < 100 nM | – |
